Results on four compounds are retold here after US20200308162A1, “DRUGS AND COMPOSITIONS FOR OCULAR DELIVERY” (Graybug Vision, Inc., priority 2017, published 2020).

A short description of data set [1]: Stability of Timolol prodrugs in PBS via HPLC. The conditions noted are these: PBS (100% PBS). It is filed as physicochemical. On the procedure:
The stability of Compound 51 was measured in 100% serum (FIG. 27A), 50% serum and 50% PBS (FIG. 27B), and 100% PBS (FIG. 27C) via HPLC. Each point on the graph is the retention time of Compound 51, parent Timolol, and 4 breakdown products at day 0, 1, 2, 3, 4, or 5 as measured. […] The concentration of the breakdown product with a retention time of 5.454 minutes was higher than the concentration of parent Timolol (retention time=4.4 minutes).
The stability of Compound 52 was measured in PBS (FIG. 28) and the stability of Compound 53 was measured in PBS (FIG. 29).

The nature of data set [2]: In vitro drug release kinetics of Timolol prodrug microparticles in PBS and 1% Tween 20 (pH 7.4) at 37° C. In kind it is physicochemical. On the procedure: In vitro drug release kinetics were evaluated in a release medium composed of PBS and 1% Tween 20 (pH 7.4). Briefly, 10 mg of particles was suspended in 4 mL of the release medium The particle suspension was incubated on an orbital shaker at 150 rpm at 37° C. At various time points, 3 mL of release media was collected, and the suspension was replenished with 3 mL of fresh release media. Collected release samples were frozen and stored at −80° C. until analysis for drug content. The collected samples were filtered through a 0.2 μm syringe filter and analyzed by RP-HPLC. FIG. 17-FIG. 22 illustrate the total and parent Timolol release profile for the microparticles encapsulating bis-prodrugs of Timolol of Table 11.

For data set [3] the following is noted: clinical trials and post-marketing clinical use; cited from earlier work.
Data set [4] can be described thus: Drug release kinetics of Timolol and ethacrynic acid prodrugs from polymer microparticles. It is filed as physicochemical. The method, then:
The effect of polymer composition including monomer ratio and molecular weight, polymer end-groups (ester or acid), inherent viscosity and polymer blend ratios on particle degradation and drug release kinetics of Timolol-O-ethyl fumurate (17) was evaluated and is illustrated in FIG. 5. The rate of particle degradation was slowed and drug release was prolonged when the mole % of DL-lactide over glycolide was increased. By incorporating polymers with different monomer ratios (i.e., PLA, PLGA8515, PLGA525, PLGA5050 wherein 8515 refers to 85% DL-lactide and 15% glycolide) into the particles, it is possible to fine-tune the degradation rate of the particles to achieve a linear rate of drug release from the particles to minimize burst or lag and to extend the duration of release. […] The 78/22(PLA 5A/PLGA8515 4.5A) and 65/20/15(PLA 4A/PLGA6515 4.5A/PLGA5050 4A) polymer blends generated ideal particles for a 3-6 month linear release formulation. […] The rate of release was independent of the salt form. […] Thus, release rate is not solely dictated by the physicochemical properties of the linker, but rather must be attributed to a combination of parameters that may include linker type and site of linker conjugation.
FIG. 6 illustrates the release kinetics of ethacrynic acid-PLA(n=4)-ethyl ester (1) from PLGA microparticles. The drug was released over a period of approximately 66 days.
FIG. 8 and FIG. 9 illustrate the release kinetics of ethacrynic acid-PLA(n=4)-ethyl ester (1) and ethacrynic acid-PLA(n=6)-ethyl ester (25), respectively, from PLGA microparticles. The drug was released from a number of formulations over a period of greater than 90 days. […] Particles generated with 1% PVA in PBS was compared against particles generated in 1% PVA in water (FIG. 10).
Based upon these initial formulation screens, the formulation comprising of 1% mPEG-PLGA and 99% PLA100 4.5A:PLGA8515 5A (77:22) was selected as the lead formulation for ECA-PLA(n=4) (1) and ECA-PLA(n=6) (25) prodrugs. The particles were prepared in 1% PVA in water. The release profiles for the lead ECA-PLA(n=4) (1) and ECA-PLA(=6) (25) particle formulations are illustrated in FIG. 11.

Data set [5] can be described thus: Drug solubility in water, DMSO and DCM (HPLC of filtered supernatant). The conditions noted are these: thermodynamic from solid.
Protocol: For each test, approximately 5-10 mg was transferred to a 10 mL glass vial. Aqueous or organic solvent was added to each vial to achieve an overall concentration of 50 mg/mL. After vortexing aggressively for 2-3 minutes and sonicating in a bath sonicator for 5 minutes, undissolved drug was spun down at 1200 rpm for 5 minutes to generate a pellet. The supernatant was collected and filtered through a 0.2 μm nylon syringe filter into HPLC vials for drug content analysis. Drug concentration was determined by comparing against a standard calibration curve.
A short description of data set [6]: In vitro stability of ethacrynic acid prodrugs at 37° C. It is filed as physicochemical. An excerpt: As evidenced, both prodrugs of ethacrynic acid degrade steadily over the 6 day period. As the ester linkages are hydrolyzed, the parent compound is generated in a linear rate. The rate of degradation to the parent compound is faster for the shorter […] in comparison to the degradation kinetics for ethacrynic acid-PLA(n=4)-ethyl ester (1).
Approximately 94% of the ECA-PLA(n=4) prodrug (1) has been converted to free ECA by day 6, in comparison to only 56% for ECA-PLA(n=6) (25). Also, by day 6, all the initial prodrug has been degraded into intermediates and free drug respectively.

Data set [7] in a line: Mean size of ethacrynic acid prodrug encapsulated microparticles. In kind it is physicochemical.
Data set [8] is described as follows: Percent drug loading of ethacrynic acid prodrug microparticles (RP-HPLC). It is filed as physicochemical. On the procedure: To determine the percent drug loading (% DL), 10 mg of particles was weighed into a glass scintillation vial and dissolved with 10 mL of MeCN:water (1:1, v/v). The solution was filtered through a 0.2 μm nylon syringe filter and the drug content was determined by RP-HPLC referenced against a standard calibration curve.

[9] abbreviates: PLA100 4.5A + 1% PEG-PLGA5050, polymer 200 mg/mL.
[10] abbreviates: PLA100 4.5A + PLGA7525 6E (69:30) + 1% PEG-PLGA5050, polymer 200 mg/mL.
The mark [11] stands for this setting: PLA100 4.5A + PLGA8515 5A (77:22) + 1% PEG-PLGA5050, polymer 200 mg/mL.
Where [12] appears, read: PLA100 4.5A + PLGA8515 5A + PLGA5050 4A (64:20:15) + 1% PEG-PLGA5050, polymer 200 mg/mL.
Setting [13] is: PLA100 4.5A + PLGA8515 5A + PLGA5050 4A (64:30:5) + 1% PEG-PLGA5050, polymer 200 mg/mL.
Where [14] appears, read: PLGA7525 4A + 1% PEG-PLGA5050, polymer 200 mg/mL.
Setting [15] is: PLGA7525 6A + 1% PEG-PLGA5050, polymer 200 mg/mL.
[16] abbreviates: PLGA8515 5A + 1% PEG-PLGA5050, polymer 200 mg/mL.
Where [17] appears, read: PLGA8515 5A + PLGA7525 4A (69:30) + 1% PEG-PLGA5050, polymer 200 mg/mL.

“Also recorded” adds a separate entry of the source.

`CC(=O)OCC(=O)O[C@H](COc1nsnc1N1CCOCC1)CN(C(=O)COC(C)=O)C(C)(C)C` [Compound 52, Timolol-N,O-bis-Glycolic acid-OAc]: the “stability / breakdown into parent Timolol and breakdown products” value in data set [1] was “breaks down over the course of 15 days; also recorded: breaks down into parent Timolol”. Also, in data set [2] (PBS and 1% Tween 20 (pH 7.4), 37° C.), the “parent Timolol released relative to total release of prodrug and intermediates” value is “primarily as native parent Timolol”. Also, the maximum release duration result in data set [2] (in vitro, FIG. 21) is “approximately 70 days”.

Take `CCN(CC)CCNC(=O)c1c(C)[nH]c(/C=C2\C(=O)Nc3ccc(F)cc32)c1C` [Sunitinib]: the hepatotoxicity result in data set [3] was “observed hepatotoxicity”.

`C=C(CC)C(=O)c1ccc(OCC(=O)O[C@@H](C)C(=O)O[C@@H](C)C(=O)O[C@@H](C)C(=O)O[C@@H](C)C(=O)OCC)c(Cl)c1Cl` [Compound 1, (S)-2-{2-[2,3-Dichloro-4-(2-methylene-butyryl)-phenoxy]-acetoxy}-propionic acid (S)-1-[(S)-1-((S)-1-ethoxycarbonyl-ethoxycarbonyl)-ethoxycarbonyl]-ethyl ester]: the “in vitro release profile of lead microparticle formulation” value in data set [4] (1% mPEG-PLGA and 99% PLA100 4.5A:PLGA8515 5A (77:22), prepared in 1% PVA in water, FIG. 11) is recorded as “typical biphasic release profile”. Also, the “period over which the drug was released” value in data set [4] (microparticles of PLA/PLGA blends, PLGA blends, FIG. 6) is listed as “approximately 66 days”. The solubility is > 40 mg/mL in data set [5] (DMSO, organic solvent or mixture) and < 1 mg/mL in data set [5] (water). In addition, the “generation of parent ethacrynic acid as ester linkages are hydrolyzed” value in data set [6] (37° C. over 6 days) is “generated at a linear rate”. Further, the “rate of degradation of the prodrug” value in data set [6] (37° C., 6 days) was “slightly faster”. Moreover, the “prodrug converted to free ECA by day 6” value in data set [6] (37° C., day 6) is given as “Approximately 94%”. Further, the Mean size is 35.06 um in data set [7] (setting [9]); 27.40 um in data set [7] (setting [10]); 26.60 um in data set [7] (setting [11]); 28.34 um in data set [7] (setting [12]); 29.86 um in data set [7] (setting [13]); 29.85 um in data set [7] (setting [14]). For the same compound, the Mean size in data set [7] (setting [15]) is given as 25.21 um; in data set [7] (setting [16]), 28.90 um; in data set [7] (setting [17]), 27.74 um. The “% Drug loading” value in data set [8] (setting [9]) was found to be 13.42%; in data set [8] (setting [10]), 14.17%; in data set [8] (setting [11]), 12.56%; in data set [8] (setting [12]), 13.75%; in data set [8] (setting [13]), 12.68%; in data set [8] (setting [14]), 13.09%. The “% Drug loading” value amounted to 13.15% in data set [8] (setting [15]), 13.59% in data set [8] (setting [16]) and 13.49% in data set [8] (setting [17]).

Regarding `CC(=O)OCC(=O)N(C[C@@H](COc1nsnc1N1CCOCC1)OC(=O)COC(=O)C(C)OC(=O)C(C)O)C(C)(C)C` (stereo partly shown) [Compound 53, Timolol-N-Glycolic acid-OAc-O-Glycolic acid-PLA (n = 2)-OH], in data set [1], the “stability / breakdown into parent Timolol and breakdown products” value is “breaks down over the course of 8 days; also recorded: a significant amount of an additional breakdown product”. Besides, the “linear (4-month) drug release” value in data set [2] (in vitro) is “did not exhibit linear drug release; also recorded: did not consistently meet the 4-month criteria”.

The solubility is how much of the substance goes into solution per volume.
